Structures can show the parent of a compound that is named as a salt. Where two headings read alike, the source gives them in different places.
Tests used:
[1] = system: EBOV-Zaire GP/HIV-luc pseudovirus; format: cell-based, Zaire ebolavirus
[2] = system: EBOV-Zaire GP/HIV-luc pseudovirus; experiment: organism not typed; format: cell-based, Zaire ebolavirus; conditions: for EC50: HEK-293T, read-out: half-maximum effect concentration (EC50) against EBOV
[3] = system: MARV-GP/HIV-luc pseudovirus; experiment: microbe, parasite or virus in culture; format: cell-based; conditions: read-out: EC50 against the Marburg virus entering the host
[4] = system: LASV-GP/HIV-luc pseudovirus; experiment: organism not typed; format: cell-based; conditions: read-out: EC50 against the Lassa virus entering the host

O=C1Nc2ccc(Cl)cc2[C@@](C#CC2CC2)(C(F)(F)F)O1 [efavirenz]
inhibition effect on the virus when added at 6 h (TOA) [1]: still had an inhibition effect

COc1cc2c3cc1Oc1c(OC)c(OC)cc4c1[C@@H](Cc1ccc(O)c(c1)Oc1ccc(cc1)C[C@@H]3N(C)CC2)N(C)CC4 [berbamine dihydrochloride]
inhibition rate on the EBOV-Zaire GP/HIV-luc pseudovirus [2]: over 80%
EC50 ([2]; 48 h): 0.49 µM
EC50 [2]: 0.49 µM
EC50 [3]: 0.99 µM
EC50 [4]: 2.64 µM
effect on cell activity (CCK-8, OD 450 nm) (293T cells): no significant effect
